From the supplement of paper PMC10307832

Key:
Assay in all cases: relative viability (nuclei count vs DMSO), 5 days (fraction); higher = more cells survive
17-AAG + Palbociclib = compound: C=CCNC1=C2C[C@@H](C)C[C@H](OC)[C@H](O)[C@@H](C)/C=C(\C)[C@H](OC(N)=O)[C@@H](OC)/C=C\C=C(/C)C(=O)NC(=CC1=O)C2=O [17-AAG] + CC(=O)c1c(C)c2cnc(Nc3ccc(N4CCNCC4)cn3)nc2n(C2CCCC2)c1=O [Palbociclib] (partner 0.5 µM)
In short: (§1)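 After 5 days of treatment, lung cancer cells in 1536-well plates were fixed and stained in a single step (final 0.05% Triton X-100, 1% formaldehyde, 1 ug/ml Hoechst) and their nuclei counted on 4× images. Treatment had been applied by pin tool the day after seeding as one drug alone or as a fixed anchor-drug dose with five library-drug doses (not always all listed) in √10 steps. Relative viability is the nuclei count of treated wells divided by that of vehicle wells, and values are medians of duplicate plates.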

17-AAG + Pictilisib = compound: C=CCNC1=C2C[C@@H](C)C[C@H](OC)[C@H](O)[C@@H](C)/C=C(\C)[C@H](OC(N)=O)[C@@H](OC)/C=C\C=C(/C)C(=O)NC(=CC1=O)C2=O [17-AAG] + CS(=O)(=O)N1CCN(Cc2cc3nc(-c4cccc5[nH]ncc45)nc(N4CCOCC4)c3s2)CC1 [Pictilisib] (partner 1 µM)
In short: as §1

17-AAG + OSI-027 = compound: C=CCNC1=C2C[C@@H](C)C[C@H](OC)[C@H](O)[C@@H](C)/C=C(\C)[C@H](OC(N)=O)[C@@H](OC)/C=C\C=C(/C)C(=O)NC(=CC1=O)C2=O [17-AAG] + COc1cccc2cc(-c3nc([C@H]4CC[C@H](C(=O)O)CC4)n4ncnc(N)c34)[nH]c12 [OSI-027] (partner 0.5 µM)
In short: as §1

17-AAG + Luminespib = compound: C=CCNC1=C2C[C@@H](C)C[C@H](OC)[C@H](O)[C@@H](C)/C=C(\C)[C@H](OC(N)=O)[C@@H](OC)/C=C\C=C(/C)C(=O)NC(=CC1=O)C2=O [17-AAG] + CCNC(=O)c1noc(-c2cc(C(C)C)c(O)cc2O)c1-c1ccc(CN2CCOCC2)cc1 [Luminespib] (partner 0.01 µM)
In short: as §1

| Cell Line | relative viability (17-AAG + Palbociclib; first compound 0.00128 µM) | relative viability (17-AAG + Palbociclib; first compound 0.004048 µM) | relative viability (17-AAG + Palbociclib; first compound 0.0128 µM) | relative viability (17-AAG + Palbociclib; first compound 0.04048 µM) | relative viability (17-AAG + Palbociclib; first compound 0.128 µM) | relative viability (17-AAG + Pictilisib; first compound 0.00128 µM) | relative viability (17-AAG + Pictilisib; first compound 0.004048 µM) | relative viability (17-AAG + Pictilisib; first compound 0.0128 µM) | relative viability (17-AAG + Pictilisib; first compound 0.04048 µM) | relative viability (17-AAG + Pictilisib; first compound 0.128 µM) | relative viability (17-AAG + OSI-027; first compound 0.00128 µM) | relative viability (17-AAG + OSI-027; first compound 0.004048 µM) | relative viability (17-AAG + OSI-027; first compound 0.0128 µM) | relative viability (17-AAG + OSI-027; first compound 0.04048 µM) | relative viability (17-AAG + OSI-027; first compound 0.128 µM) | relative viability (17-AAG + Luminespib; first compound 0.00128 µM) | relative viability (17-AAG + Luminespib; first compound 0.004048 µM) | relative viability (17-AAG + Luminespib; first compound 0.0128 µM) | relative viability (17-AAG + Luminespib; first compound 0.04048 µM) | relative viability (17-AAG + Luminespib; first compound 0.128 µM) |
| --- | --- | --- | --- | --- | --- | --- | --- | --- | --- | --- | --- | --- | --- | --- | --- | --- | --- | --- | --- | --- |
| NCI-H2405 | 0.541 | 0.525 | 0.364 | 0.219 | 0.174 | 0.521 | 0.248 | 0.175 | 0.179 | 0.164 | 0.636 | 0.686 | 0.532 | 0.223 | 0.181 | 0.542 | 0.335 | 0.256 | 0.239 | 0.184 |
| PC-14 | 0.471 | 0.241 | 0.0966 | 0.0821 | 0.0751 | 0.654 | 0.219 | 0.057 | 0.067 | 0.0563 | 0.803 | 0.289 | 0.0511 | 0.0734 | 0.0603 | 0.146 | 0.111 | 0.143 | 0.162 | 0.128 |
| NCI-H2023 | 0.374 | 0.195 | 0.102 | 0.0665 | 0.0605 | 0.292 | 0.173 | 0.0917 | 0.0989 | 0.0852 | 0.328 | 0.221 | 0.0577 | 0.0589 | 0.0633 | 0.52 | 0.25 | 0.228 | 0.0785 | 0.0689 |
| 201T | 0.364 | 0.351 | 0.353 | 0.372 | 0.35 | 0.679 | 0.667 | 0.663 | 0.546 | 0.424 | 0.823 | 1.01 | 0.443 | 0.165 | 0.165 | 1.06 | 1.03 | 0.96 | 0.913 | 0.431 |
